This passage reports Kd and Ki results from publication PMC8512817 (Molecules, 2021).

Holding throughout (assay): biochemical
Assay [1] addresses T1, A9UPE9 PDZ (Monosiga brevicollis, UniProt A9UPE9). The settings on record: fluorescence polarization. On the technique in general: In fluorescence polarisation assays a small probe gives low polarisation when free and higher when bound to something large.
Procedure: Expression and purification of all human and M. brevicollis PDZ domains followed a similar protocol, as previously reported for mbSHANK1 PDZ [48, 54]. Briefly, N-terminal His-tagged versions of A9UPE9 PDZ (residues 7–98) and DLG1-1 PDZ (residues 220–317) with cleavable TEV sites were inserted into the pET28a+ vector by gene synthesis (GenScript) and expressed in Escherichia coli BL21 (DE3) cells. Cells were lysed on ice using sonication. The lysis buffer used was 50 mM Tris pH 8.5, 200 mM NaCl, 10 mM CaCl2, 10 mM MgCl2, 20% (w/v) glycerol, 50 mM imidazole pH 8.5, 0.25 mM TCEP, DNAse, and protease inhibitor cocktail. Immobilized metal-affinity chromatography, 5 mL HisTrap (GE Healthcare, now Cytiva), was used to purify proteins from the clarified supernatant. The wash buffer used was 25 mM imidazole pH 8.5, 25 mM Tris pH 8.5, 250 mM NaCl, 10% (v/v) glycerol, and 0.25 mM TCEP, and the elution buffer was 400 mM imidazole pH 8.5, 25 mM Tris pH 8.5, 50 mM NaCl, 10% (v/v) glycerol, and 0.25 mM TCEP. Except for the protein used in binding experiments, the protein was then dialyzed in dialysis/gel filtration buffer (25 mM Tris pH 8.5, 150 mM NaCl, 10% (w/v) glycerol, 0.5 mM TCEP) and incubated at 4 °C overnight with TEV protease to cleave off the His-tag. The cleaved protein was then purified using a second nickel column with the wash and elution buffers described above. All proteins were further purified on a Superdex S75 column (Cytiva), using gel filtration buffer. Proteins were concentrated using Amicon centrifugal concentrators (3 MWCO). Concentrated proteins used in fluorescence polarization assays were flash frozen in liquid nitrogen for storage at −80 °C. The extinction coefficient values used for quantification of the proteins at A280 were 1490 cm^−1·M^−1 (A9UPE9) and 4470 cm^−1·M^−1 (DLG1-1).
Fluorescence polarization assays were conducted, as previously described [12, 45, 46, 48, 54, 60]. […] Competition experiments were performed in at least triplicate, and binding affinities were determined using SOLVER, as previously described [12, 45, 46, 48, 54, 60].
Assay [2] addresses T1, A9UPE9 PDZ. The source says: (§1) Starting with the HPV18 E6 C-terminal sequence, we designed a number of peptides to test specific peptide positions, including HPV16 E6, HPV18 E6, SRETTV, SRETDV, RRETTV, and RRETDV, where underlined residues differ from HPV18 E6. As a control, we also tested human SNX27, SHANK1, and GIPC PDZ targets previously studied, including GIRK3 (sequence: ESESKV), BPIX (WDETNL), GAIP (QSSSEA), TYRP1 (PNQSVV), and B1AR (ASESKV), as well as previously identified mbSHANK targets, including A9V7Z4 (EDETAL), A9UP44 (QSESRL), and A9UXE1 (QDETAL).
(§2) Figure 6 The binding isotherms from competition fluorescence polarization experiments of A9UPE9 (left, as labeled), and DLG1-1 (right, as labeled) PDZ domains are shown with the HPV18 E6 variant peptides SRETTV and SRETDV. The average values are shown, with error bars representing standard deviation from at least triplicate experiments.
(§3) Cells were lysed on ice using sonication.
(§4) Binding curves were visualized using Kaleidagraph.

In assay [3] the target is DLG1-1 PDZ (Homo sapiens, UniProt Q12959).
DLG1-1 PDZ, sequence (Q12959 220-317): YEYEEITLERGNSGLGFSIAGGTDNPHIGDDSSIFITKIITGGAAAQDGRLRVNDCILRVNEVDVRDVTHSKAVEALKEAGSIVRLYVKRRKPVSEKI
Excerpt: as §1, §2, §3, §4

Setting [4] is: KI Values (μM) A9UPE9 PDZ, Table 3, competition FP, reporter 30 nM F*-HPV18 E6, 10.5 μM protein, at least triplicate, fitted with SOLVER.

Each structure is given as a SMILES string. Values joined by “and” are separate entries in the source; they are usually repeats but may differ in a detail not shown here. Equal entries are not always repeated. Where two headings read alike, the source gives them in different places. Peptide text beside a SMILES is read from it.

T1 sequence (A9UPE9 7-98): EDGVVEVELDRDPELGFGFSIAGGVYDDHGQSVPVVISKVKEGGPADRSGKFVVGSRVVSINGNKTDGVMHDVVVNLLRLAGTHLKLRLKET

Consider `CC(C)C[C@H](NC(=O)[C@H](CCC(N)=O)NC(=O)[C@@H](NC(=O)[C@H](CCC(=O)O)NC(=O)[C@H](CCCNC(=N)N)NC(=O)[C@H](CCCNC(=N)N)NC(=O)[C@@H](NC(=O)[C@H](CCCNC(=N)N)NC(=O)[C@H](CO)NC(=O)[C@H](CO)NC(=S)Nc1ccc2c(c1)C(=O)OC21c2ccc(O)cc2Oc2cc(O)ccc21)[C@@H](C)O)[C@@H](C)O)C(=O)O` [FITC-SSRTRRETQL], for which the Kd (in general, the free concentration of one partner at which half of the binding sites on the other are occupied at equilibrium, for simple one-to-one binding) in assay [1] (duplicate experiments) is 19.5 ± 1.8 µM.

For `CC(C)[C@H](NC(=O)[C@@H](NC(=O)[C@H](CO)NC(=O)[C@H](CCC(N)=O)NC(=O)[C@H](CC(N)=O)NC(=O)[C@@H]1CCCN1)C(C)C)C(=O)O` [TYRP1] (H-PNQSVV-OH), the inhibitory constant (Ki) (usually a dissociation constant, usually derived from enzyme kinetics or from competition with a known ligand) in assay [2] (setting [4]) amounted to 97 ± 24 µM. In the case of `CC(C)C[C@H](NC(=O)[C@H](CC(N)=O)NC(=O)[C@@H](NC(=O)[C@H](CCC(=O)O)NC(=O)[C@H](CC(=O)O)NC(=O)[C@@H](N)Cc1c[nH]c2ccccc12)[C@@H](C)O)C(=O)O` [BPIX] (H-WDETNL-OH), the Ki was 330 ± 160 µM in assay [2] (setting [4]) and 460 ± 140 µM in assay [3].

`CC(C)C[C@H](NC(=O)[C@@H](N)CCCNC(=N)N)C(=O)N[C@@H](CCC(N)=O)C(=O)N[C@@H](CCCNC(=N)N)C(=O)N[C@@H](CCCNC(=N)N)C(=O)N[C@@H](CCCNC(=N)N)C(=O)N[C@@H](CCC(=O)O)C(=O)N[C@H](C(=O)N[C@@H](CCC(N)=O)C(=O)N[C@H](C(=O)O)C(C)C)[C@@H](C)O` [HPV18 E6] returned a Ki in assay [2] (setting [4]) of 16 ± 1 µM. As to `CC(C)C[C@H](NC(=O)[C@H](CCCNC(=N)N)NC(=O)[C@H](CO)NC(=O)[C@H](CCC(=O)O)NC(=O)[C@H](CO)NC(=O)[C@@H](N)CCC(N)=O)C(=O)O` [Peptide A9UP44] (H-QSESRL-OH), affinity in assay [2] (setting [4]) was put at a Ki of 64 ± 35 µM. The same measure, in the same setting: with `C[C@H](NC(=O)[C@H](CCC(=O)O)NC(=O)[C@H](CO)NC(=O)[C@H](CO)NC(=O)[C@H](CO)NC(=O)[C@@H](N)CCC(N)=O)C(=O)O` [GAIP] (H-QSSSEA-OH) the figure was > 1000 µM. With `CC[C@H](C)[C@H](NC(=O)[C@@H](N)C(C)C)C(=O)N[C@@H](C)C(=O)N[C@H](C(=O)N[C@@H](CCC(=O)O)C(=O)N[C@H](C(=O)O)C(C)C)[C@@H](C)O` [DLL1/DLL4] (H-VIATEV-OH), in assay [2], the inhibition constant Ki worked out at 240 ± 40 µM. As to `CC(C)C[C@H](NC(=O)[C@H](C)NC(=O)[C@@H](NC(=O)[C@H](CCC(=O)O)NC(=O)[C@H](CC(=O)O)NC(=O)[C@@H](N)CCC(N)=O)[C@@H](C)O)C(=O)O` [Peptide A9UXE1] (H-QDETAL-OH), in assay [2] (setting [4]), the Ki worked out at 460 ± 210 µM. For `CC(C)[C@H](NC(=O)[C@H](CCCCN)NC(=O)[C@H](CO)NC(=O)[C@H](CCC(=O)O)NC(=O)[C@H](CO)NC(=O)[C@H](C)N)C(=O)O` [Peptide B1AR] (H-ASESKV-OH), in assay [2] (setting [4]), affinity was put at a Ki of 95 ± 30 µM. The compound `CC(C)[C@H](NC(=O)[C@H](CO)NC(=O)[C@H](CO)NC(=O)[C@H](CCC(=O)O)NC(=O)[C@H](CO)NC(=O)CN)C(=O)O` [Peptide A9UWP5_MONVE] (H-GSESSV-OH) came in with a Ki in assay [2] of 490 ± 110 µM. In the case of `CC(C)C[C@H](NC(=O)[C@H](CCC(N)=O)NC(=O)[C@@H](NC(=O)[C@H](CCC(=O)O)NC(=O)[C@H](CCCNC(=N)N)NC(=O)[C@H](CCCNC(=N)N)NC(=O)[C@@H](NC(=O)[C@H](CCCNC(=N)N)NC(=O)[C@H](CO)NC(=O)[C@@H](N)CO)[C@@H](C)O)[C@@H](C)O)C(=O)O` [HPV16 E6], in assay [2] (setting [4]), the Ki was 66 ± 24 µM. `CC(C)[C@H](NC(=O)[C@@H](NC(=O)[C@H](CO)NC(=O)[C@H](CCC(=O)O)NC(=O)[C@H](CCCNC(=N)N)NC(=O)[C@@H](N)Cc1c[nH]cn1)[C@@H](C)O)C(=O)O` [Peptide A9V6G5_MONBE] (H-HRESTV-OH): the inhibition constant Ki in assay [2] was < 100 µM and 97 µM. On to `CC(C)C[C@H](NC(=O)[C@H](C)NC(=O)[C@@H](NC(=O)[C@H](CCC(=O)O)NC(=O)[C@H](CC(=O)O)NC(=O)[C@@H](N)CCC(=O)O)[C@@H](C)O)C(=O)O` [Peptide A9V7Z4] (H-EDETAL-OH), for which the Ki in assay [2] (setting [4]) stood at 580 ± 160 µM; in assay [3], 460 ± 190 µM. In the case of `CC(C)[C@H](NC(=O)[C@H](CCCCN)NC(=O)[C@H](CO)NC(=O)[C@H](CCC(=O)O)NC(=O)[C@H](CO)NC(=O)[C@@H](N)CCC(=O)O)C(=O)O` [GIRK3] (H-ESESKV-OH), the Ki in assay [2] (setting [4]) was > 1000 µM. For the compound `CC(C)C[C@H](NC(=O)[C@H](CCCNC(=N)N)NC(=S)Nc1ccc2c(c1)C(=O)OC21c2ccc(O)cc2Oc2cc(O)ccc21)C(=O)N[C@@H](CCC(N)=O)C(=O)N[C@@H](CCCNC(=N)N)C(=O)N[C@@H](CCCNC(=N)N)C(=O)N[C@@H](CCCNC(=N)N)C(=O)N[C@@H](CCC(=O)O)C(=O)N[C@H](C(=O)N[C@@H](CCC(N)=O)C(=O)N[C@H](C(=O)O)C(C)C)[C@@H](C)O` [F*-HPV18 E6], the dissociation constant Kd in assay [1] (30 nM reporter peptide, triplicate experiments) is 6.9 µM and < 10 µM.
